Data taken from patent US11872262B2, “Means and methods for treating bacterial infections” (VIB VZW, priority 2017, dated 2024).
≈ marks a conversion by molar mass, not a printed value. Residues, ends and D or L forms follow the SMILES beside them.

Key:
E. coli O157:H7 = format: cell-based, Escherichia coli; conditions: screening-stage peptides tested at 1, 6, 12 and 25 μg/mL
In short: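 Tandem-repeat aggregation-prone-region peptides from DMSO stocks were tested for growth inhibition of E. coli O157:H7 at 1, 6, 12 and 25 μg/mL.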

Acinetobacter baumanii = format: cell-based
Experimental: (§1) Gram negative bacterial strains were cultivated in Luria-Bertani (LB) broth (Difco) and gram positive bacteria strains were grown in a rich medium, brain heart infusion (BHI) broth (Difco, Sparks, MD) at 37° C. Whenever required, growth media were supplemented with appropriate antibiotic to the medium or plates. Escherichia coli DH5α was used for cloning and plasmid amplification. […] Bacterial CFU counting was done on blood agar plates (BD Biosciences). Species identification and antibiograms for all clinical isolates were performed using MALDI-TOF and VITEK® 2 automated system (bioMérieux).
(§2) The MICs of active peptides were determined via the Broth microdilution assay according to the EUCAST guideline, which were performed in 96-well polystyrene flat-bottom microtiter plates (BD Biosciences). Briefly, a single colony was inoculated into 5 mL LB medium and grown to the end-exponential growth phase in a shaking incubator at 37° C. Cultures were subsequently diluted to an OD600 of 0.002 ([…]) in fresh LB medium. 100 μL of LB medium with different concentration of peptides ranging from 100 μg/mL to 1 μg/mL were serially diluted to the sterile 96-well plate (at least 3 wells in each plate). Afterward, 100 μL of the diluted bacteria were pipetted into 96-well plates containing different concentration of peptides. In each plate, the grown bacteria with maximum concentration of carrier and medium were considered as positive and negative controls, respectively. Thereafter, 96-well plates was statically incubated overnight at 37° C. to allow bacterial growth. A multipurpose UV/VIS plate reader at OD590 nm, 1 s shaking measured the absorbance of the growth bacteria using a Perkin Elmer spectrophotometer (1420 Multilabel Counter Victor 3).

[1] = test system: Acinetobacter radioresistens; format: cell-based
Experimental: as §1, §2

[2] = test system: Enterobacter cloacae LMG2783T; format: cell-based
Experimental: as §1, §2

[3] = test system: Klebsiella pneumoniae (ATCC 1388); format: cell-based
Experimental: as §1, §2

Neisseria = format: cell-based
Experimental: as §1, §2

Proteus mirabilis = format: cell-based
Experimental: as §1, §2

Pseudomonas aeruginosa = format: cell-based
Experimental: as §1, §2

[4] = test system: Staphylococcus aureus MRSA326; format: cell-based
Experimental: as §1, §2

[5] = test system: Staphylococcus epidermidis 12228; format: cell-based
Experimental: as §1, §2

[6] = In vitro haemolytic activity test; format: cell-based; conditions: human erythrocytes; read-out: LC50, concentration at which the peptide induces 50% lysis of human erythrocytes
Experimental: The hemolytic activities of peptides were determined by hemolysis against human erythrocytes. Pooled fresh blood was obtained and erythrocytes were collected by centrifugation 3000 rpm for 5 minutes (Anticoagulated by EDTAK) (Cristina et al. 2015). The pellet was washed three times with PBS and was diluted to a concentration of 8% in PBS. 100 μL of 8% Red blood cells solution was mixed with 100 μL of serial dilutions of peptides in PBS buffer in 96 well plates (BD Biosciences). The reaction mixtures were incubated for 1 h at 37° C. Thereupon, the plate was centrifuged for 10 minutes at 3000 rpm and 100 μL of supernatant was transferred to a sterilized 96-well plate (flat bottom). The release of hemoglobin was determined by measuring the absorbance of the supernatant at 405 nm. […] Erythrocytes in 1% Triton and Max used concentration of vehicle were used as control of 100% and 0% hemolysis, respectively.

HeLa cells = assay: In vitro mammalian cytotoxicity (LDH release, CellTiter Blue); format: cell-based, human
Experimental: Mammalian cytotoxicity was measured using the LDH release (Roche, Mannheim, Germany) and CellTiter Blue (Promega) methods. Briefly, HeLa cells (obtained from Bart De Strooper lab, tested to be mycoplasma free) were seeded in 96-well round bottom plates at a concentration of 3×10^5 cells/mL in Dulbecco's Modified Eagle's Medium and treated by different concentrations of peptides. Cells treated with 1% Triton™ X-100 and vehicle were considered as positive and negative controls, respectively. Micro-plates were incubated at 37° C., 5% CO2 and 90% humidity for 4 hours. The micro-plate was centrifuged at 1350 rpm for 10 minutes. 100 μL of supernatant was transferred into clear 96-well flat bottom microplates. In order to determine LDH activity in the supernatants, 100 μl reaction mix (catalyst and dye solution) were added to each well and incubated for 30 min at RT in the dark and the LDH reaction was stopped by adding 100 ul of the Stop solution. The absorbances of the samples were measured at 490 nm. The cell viability was calculated using the formula: (exp. value−negative control value)/(positive control value−negative control value)*100. The amount of absorbance is proportional to the number of living cells and corresponds to the cells' metabolic activity.

In the case of CC(C)C[C@H](NC(=O)CNC(=O)[C@H](CCCNC(=N)N)NC(=O)[C@@H]1CCCN1C(=O)[C@H](CCCNC(=N)N)NC(=O)[C@H](CCCNC(=N)N)NC(=O)[C@@H](NC(=O)[C@H](CC(C)C)NC(=O)[C@H](C)NC(=O)[C@H](CC(C)C)NC(=O)CNC(=O)[C@H](CC(C)C)NC(=O)CNC(=O)[C@@H](N)CCCNC(=N)N)C(C)C)C(=O)NCC(=O)N[C@@H](CC(C)C)C(=O)N[C@@H](C)C(=O)N[C@@H](CC(C)C)C(=O)N[C@H](C(=O)N[C@@H](CCCNC(=N)N)C(=O)N[C@@H](CCCNC(=N)N)C(=O)O)C(C)C [Peptide P2] (H-RGLGLALVRRPRGLGLALVRR-OH), the “E. coli O157 (apparent MIC in screen)” value (E. coli O157:H7) is reported as 6 µg/mL, the MIC (Acinetobacter baumanii) is reported as 6 µg/mL (≈ 2.61 µM) and the MIC [1] is reported as 5 µg/mL (≈ 2.17 µM). The MIC [2] was 50 µg/mL (≈ 21.7 µM), the MIC [3] was 50 µg/mL (≈ 21.7 µM) and the MIC (Neisseria) was 50 µg/mL (≈ 21.7 µM). It also gave an MIC (Proteus mirabilis) of 50 µg/mL (≈ 21.7 µM), an MIC (Pseudomonas aeruginosa) of 200 µg/mL (≈ 87 µM) and an MIC [4] of 200 µg/mL (≈ 87 µM). The MIC [5] was 50 µg/mL (≈ 21.7 µM), the HC50 at 1 h [6] was 1100 µg/mL and the “toxicity towards mammalian cells” value (HeLa cells) was “little or no toxicity towards mammalian cells”.
